One data set has as its target T1, CYP2D6 (Homo sapiens, UniProt P10635).
T1 construct: endogenous in cells; host or cells: primary human hepatocytes (PHH)
The data set is described as follows: Measurement of CYP activity using CYP substrates in PHH (BUF to 1OH-BUF). It counts as in vitro ADME. Conditions: 10 μM BUF. As for the experimental part: (§1) The LC-MS/MS analysis was carried out to measure the activity of CYP. Prior to a CYP substrate treatment, PHH was cultured in DMEM containing 10 mM HEPES for 30 minutes. Subsequently, the PHH was cultured in a culture medium containing 5 μM MDZ (the metabolite thereof is 1OH-MDZ), 50 μM MPHT (the metabolite thereof is 4OH-MPHT), 5 μM DIC (the metabolite thereof is 4OH-DIC), 10 μM BUF (the metabolite thereof is 1OH-BUF), or 50 μM PHE (the metabolite thereof is APAP). The supernatant was recovered 1, 2, and 4 hours after the treatment with the substrate. At the time of recovering the supernatant, an equal amount of a culture medium containing the substrate was added.
(§2) The recovered supernatant was mixed with acetonitrile (FUJIFILM Wako Pure Chemical Corporation) containing an equal volume of 5 μM propranolol (internal standard). The specimen was filtered through a Cosmonice Filter W (Nacalai Tesque, Inc.) having a pore size of 0.45 μm, the supernatant was subsequently analyzed by LC-MS/MS, and the concentration of the metabolite was measured based on the standard curve. […]
(§3) Subsequently, the drug metabolic activities of the PHH cultured in the PDMS device and the PS plate were compared. […] Subsequently, after 1, 2, and 4 hours, the amounts of the metabolites (OH-MDZ, 4OH-DIC, APAP, 1OH-BUF, and 4OH-MPHT) generated in the culture medium were measured by LC-MS/MS.

Data set [1] in a line: Drug absorption in microfluidic device without PHH (LC-MS/MS). The data set is classed as physicochemical. The following applies: for Drug absorption rate: Microfluidic device/Polystyrene plate, without PHH. As for the experimental part: A culture medium containing MDZ, DIC, PHE, BUF, or MPHT was added to a microfluidic device or a polystyrene plate. Subsequently, 1, 2, and 4 hours after the addition of the drugs, the amounts of these drugs were quantified with LC-MS/MS.
A culture medium containing APAP (a CYP1A2 metabolite), 1OH-MDZ (a CYP3A4 metabolite), 4OH-DIC (a CYP2C9 metabolite), 4OH-MPHT (a CYP2C19 metabolite), or 1OH-BUF (a CYP2D6 metabolite) was added to a microfluidic device or a polystyrene plate. Subsequently, 1, 2, and 4 hours after the addition of the drugs, the amounts of these drugs were quantified with LC-MS/MS.
Subsequently, it was examined whether the absorption of the drugs and metabolites could be predicted by the relative physicochemical characteristics between the microfluidic device and the polystyrene plate. The drug absorption rate between the microfluidic device and the polystyrene plate was calculated. Subsequently, a correlation coefficient R^2 value between the drug absorption rate and the physicochemical characteristics (DiffCoef, M Log P, S+Log P, S+log D, MWt, and tPSA) of the drugs was calculated.

Another data set addresses T2, CYP2C9 (Homo sapiens, UniProt P11712).
T2 construct: endogenous in cells; host or cells: primary human hepatocytes (PHH)
The data set is described as follows: Measurement of CYP activity using CYP substrates in PHH (DIC to 4OH-DIC). It counts as in vitro ADME. The following applies: 5 μM DIC. The procedure: as §1, §2, §3

A further data set has as its target T3, CYP2C19 (Homo sapiens, UniProt P33261).
T3 construct: endogenous in cells; host or cells: primary human hepatocytes (PHH)
As to the kind of experiment: Measurement of CYP activity using CYP substrates in PHH (MPHT to 4OH-MPHT). The data set is classed as in vitro ADME. Conditions: 50 μM MPHT. The procedure:
as §1, §2, §3

The nature of data set [2]: Acetaminophen-induced cytotoxicity, WST-8 assay. The data set is classed as cell-based, human. Conditions: human, PHH cultured on the polystyrene plate. The procedure:
(§4) PHH was exposed to 10 mM APAP (FUJIFILM Wako Pure Chemical Corporation) for 4 days. Cell viability was measured according to a WST-8 assay. The WST-8 assay was carried out using a Cell Counting Kit-8 (Dojindo Molecular Technologies. Inc.) according to the instruction manual. The cell viability was calculated as a percentage with respect to cells not subjected to a drug treatment.
(§5) The drug responsiveness of the PHH cultured in the microfluidic device and the polystyrene plate was evaluated. PHH was treated with acetaminophen (APAP), which is known to cause drug-induced liver damage at a high concentration, in order to investigate whether or not drug-induced liver damage can be evaluated in PHH cultured in a microfluidic device. PHH was seeded in a microfluidic device or a polystyrene plate and cultured for 24 hours. Subsequently, the PHH was exposed to 10 mM acetaminophen for 4 days. Subsequently, cell viability was measured according to a WST-8 assay.
(§6) Subsequently, the hepatotoxicity of PHH due to acetaminophen was examined. The PHH cultured on the polystyrene plate was exposed to acetaminophen at various concentrations for 4 days. Subsequently, cell viability was measured according to a WST-8 assay. […] The data is indicated as average value±standard deviation (n=3).
A general note: Tetrazolium dyes change colour on reduction, which living cells bring about.

For the next data set, the system named is PHH. As to the kind of experiment: Acetaminophen-induced cytotoxicity, WST-8 assay. It counts as cell-based, human. Conditions: 10 mM acetaminophen, 4 days. The procedure:
as §4, §5, §6

A further data set deals with CYP1A2. As to the kind of experiment: Measurement of CYP activity using CYP substrates in PHH (PHE to APAP). It counts as in vitro ADME, human. Conditions: 50 μM PHE. The procedure:
The supernatant was recovered 1, 2, and 4 hours after the treatment with the substrate.

A further data set relates to CYP2B6. As to the kind of experiment: CYP induction test (quantitative RT-PCR) in PHH. The following applies: 500 μM phenobarbital, 48 hours, versus DMSO. The procedure: PHH was treated with 50 μM omeprazole, 500 μM phenobarbital, or 20 μM rifampicin (all of which are from FUJIFILM Wako Pure Chemical Corporation) for 48 hours. Each of these drugs is known to induce CYP1A2, 2B6, and 3A4. In order to measure the inducibility of CYP1A2, 2B6, and 3A4, the expression level of CYP was measured by quantitative RT-PCR. The expression level of the target gene was standardized with the expression level of GAPDH. The inducibility was calculated as a change in expression level in terms of folds in cells treated with DMSO.
PHH was seeded in each of a microfluidic device and a polystyrene plate and cultured for 24 hours. Subsequently, the cultured PHH was treated with 50 μM omeprazole, 500 μM phenobarbital, or […] rifampicin for 48 hours. […] Subsequently, the expression level of each CYP gene was measured by quantitative RT-PCR. Cells treated with DMSO (final concentration: 0.1%) were used as a control.

T2 sequence (P11712 whole entry): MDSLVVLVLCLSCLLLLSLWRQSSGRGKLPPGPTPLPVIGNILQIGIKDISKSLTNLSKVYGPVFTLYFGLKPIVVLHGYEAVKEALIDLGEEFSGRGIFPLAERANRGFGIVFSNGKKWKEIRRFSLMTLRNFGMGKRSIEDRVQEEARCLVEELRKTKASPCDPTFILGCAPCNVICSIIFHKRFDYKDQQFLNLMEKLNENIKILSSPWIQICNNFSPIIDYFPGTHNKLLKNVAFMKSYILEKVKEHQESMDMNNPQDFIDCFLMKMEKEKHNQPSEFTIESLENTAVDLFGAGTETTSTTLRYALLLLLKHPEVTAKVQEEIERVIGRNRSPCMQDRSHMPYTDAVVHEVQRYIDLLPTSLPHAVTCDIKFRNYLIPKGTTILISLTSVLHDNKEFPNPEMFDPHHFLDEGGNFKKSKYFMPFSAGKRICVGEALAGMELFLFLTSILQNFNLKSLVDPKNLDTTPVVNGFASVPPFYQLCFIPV
T3 sequence (P33261 whole entry): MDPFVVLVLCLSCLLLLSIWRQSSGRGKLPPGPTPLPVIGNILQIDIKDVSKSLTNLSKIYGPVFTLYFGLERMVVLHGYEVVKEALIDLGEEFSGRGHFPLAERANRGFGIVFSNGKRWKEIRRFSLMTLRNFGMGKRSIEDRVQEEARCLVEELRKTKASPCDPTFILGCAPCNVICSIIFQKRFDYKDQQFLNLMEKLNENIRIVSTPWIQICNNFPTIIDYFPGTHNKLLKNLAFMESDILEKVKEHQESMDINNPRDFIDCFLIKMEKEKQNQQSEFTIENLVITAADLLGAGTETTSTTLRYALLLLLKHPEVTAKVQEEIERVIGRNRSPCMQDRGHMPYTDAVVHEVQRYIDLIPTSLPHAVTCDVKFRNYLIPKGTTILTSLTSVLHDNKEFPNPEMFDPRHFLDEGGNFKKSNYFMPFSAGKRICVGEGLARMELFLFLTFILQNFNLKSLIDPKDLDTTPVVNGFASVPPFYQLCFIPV
T1 sequence (P10635 whole entry): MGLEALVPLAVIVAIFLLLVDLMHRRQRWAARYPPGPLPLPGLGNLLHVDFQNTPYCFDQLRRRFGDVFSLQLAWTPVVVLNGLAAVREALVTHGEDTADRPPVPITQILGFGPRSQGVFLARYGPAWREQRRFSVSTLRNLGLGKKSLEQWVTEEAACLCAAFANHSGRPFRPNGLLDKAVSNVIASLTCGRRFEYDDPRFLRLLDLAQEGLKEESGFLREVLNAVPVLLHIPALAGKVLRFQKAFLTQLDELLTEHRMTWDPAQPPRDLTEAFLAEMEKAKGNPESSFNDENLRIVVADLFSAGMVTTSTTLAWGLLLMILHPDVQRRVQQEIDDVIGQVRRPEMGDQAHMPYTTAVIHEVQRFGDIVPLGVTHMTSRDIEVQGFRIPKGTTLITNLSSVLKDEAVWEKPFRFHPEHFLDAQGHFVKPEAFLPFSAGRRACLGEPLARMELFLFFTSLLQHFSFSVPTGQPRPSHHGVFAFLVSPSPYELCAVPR

Regarding `CC(O)c1cccc2cc(C(O)CNC(C)(C)C)oc12` (stereo not drawn) [1-hydroxybufuralol], the “formation rate of metabolite, microfluidic device versus polystyrene plate” value on CYP2D6 is on record as “similar”. In addition, the Drug absorption rate in data set [1] came out at 0.9648. Further, the “absorption in the microfluidic device” value in data set [1] (PDMS device without PHH) is recorded as “not absorbed”.
Take `O=C(O)Cc1ccccc1Nc1c(Cl)cc(O)cc1Cl` [4-hydroxy diclofenac, 4-hydroxydiclofenac]: the “formation rate of metabolite, microfluidic device versus PS plate” value on CYP2C9 was “significantly lower”. Besides, the Drug absorption rate in data set [1] came to 0.725.
As for `CCC1(c2ccc(O)cc2)NC(=O)N(C)C1=O` (stereo not drawn) [4-hydroxymephenytoin], in data set [1], the Drug absorption rate was determined as 0.8633. On CYP2C19, the “formation rate of metabolite, microfluidic device versus PS plate” value is “significantly lower”.
Regarding `CC(=O)Nc1ccc(O)cc1` [Acetaminophen, acetaminophen], the cytotoxic concentration (CC50) – broadly, the concentration that lowers cell viability or growth by half – at 4 days in data set [2] was 9.4 mM. Besides, the “cell viability, microfluidic device versus polystyrene plate” value in the data set on PHH is listed as “significantly lower”. Besides, the “formation rate of metabolite, microfluidic device versus polystyrene plate” value in the data set with CYP1A2 is recorded as “similar”. In addition, the Drug absorption rate in data set [1] is 0.8987.
With `CCC1(c2ccccc2)C(=O)NC(=O)NC1=O` [phenobarbital], the CYP2B6 expression level result in the data set on CYP2B6 was “induced in both the microfluidic device and the polystyrene plate”.

The values above are taken from US20240150691A1, “BILE DUCT CHIP AND USE THEREOF” (Kyoto University, priority 2021, published 2024).
